Laboratory results: US11633370B2, “Use of scavengers of reactive gamma-ketoaldehydes to extend cell lifespan and healthspan” (Vanderbilt University, priority 2016, dated 2023)

Tests used:
[1] = system: MnSOD; test: Western blot of acetyl-Lys 122 MnSOD; assay type: in vivo, C. elegans; details: 500 μM SA, day 15; WT N2 compared to VC199 treated with the same dose; P>0.05
Excerpt: One of the major stimuli for activation of sirtuins is oxidative stress. […] Indeed, the mitochondrial antioxidant manganese superoxide dismutase (MnSOD) has been identified as one of the major protein targets that is deacetylated by sirtuin isoforms, with deacetylation enhancing the enzymatic activity of MnSOD [60]. If SA indeed preserves SIR-2.1 enzymatic function in vivo, the present inventors hypothesized that SA treatment would dose-dependently decrease biomarkers of oxidant injury in a SIR-2.1-dependent manner. To quantify oxidant injury, the present inventors measured F3-isoprostanes (F3-IsoPs). F3-IsoPs are the products of free radical-mediated peroxidation of eicosapentaenoic acid (EPA), and are known to be a highly sensitive and accurate marker of oxidative damage in Caenorhabditis elegans. F3—IsoPs were collected from WT N2 and from VC199 (SIR-2.1 deficient strain) nematodes grown on OP50-NGM agar plates containing increasing concentrations of SA from Day 1 of adulthood until collection at Day 15. […] To further characterize SA's ability to preserve SIR-2.1 function, the present inventors assessed acetylation of MnSOD at Lys 122.
Day 15 adult worms grown on FUDR containing SA-OP50-seeded NGM plates were harvested in M9 medium, followed by floatation on an ice-cold 60% w/v sucrose gradient to segregate clean bacteria-free adult worms from bacterial debris. […]

[2] = system: mice; details: administering SA in mice; cited from earlier work
[3] = system: N2 WT C. elegans; test: Longevity assay, wild-type N2 worms; assay type: in vivo; details: for increase in median lifespan: continuous from Day 1 of adulthood until natural death, versus 16 days; for median lifespan: control 16 days
Method: C. elegans strains were cultured at 20° C. on standard nematode growth media (NGM) agar plates seeded with Escherichia coli strain NA22. The following strains were used in this work: wild-type C. elegans Bristol strain (N2), sir-2.1(ok434) IV, F19F10.5(ok888) V, and daf-16(mu86). Strains were obtained from the Caenorhabditis Genetics Center (University of Minnesota, St. Paul, Minn.). For generating cultures of 15-day-old (Day 15) adult worms, synchronized late-stage L4s/early young adult worms were transferred to peptone enriched 15 cm plates containing UV-irradiated OP50 E. coli and 0.12 mM 5-fluoro-2′-deoxyuridine (FUDR) to inhibit progeny production[88] with or without drug until harvest.
Nematodes grown on NGM-agar plates containing 0.5% peptone, were harvested, and eggs were isolated by alkaline hypochlorite with 0.5 N NaOH, 1% hypochlorite; 8 min at 23° C. The recovered eggs were rinsed in M9 buffer and placed on fresh agar plates seeded with E. coli strain OP50 and maintained at 20° C. until late-L4/young adult stage. After the late L4/young adult molt, worms were transferred to peptone enriched 15 cm plates containing 0.12 mM FUDR, OP50 E. coli, and varying concentrations of SA. Salicylamine drug plates were made fresh before transfer by spreading SA on top of the agar and plates were allowed to dry. E. coli strain OP50 was exposed to UV radiation for 30 minutes to kill the bacteria before seeding onto the SA-FUDR NGM agar plates. Worms were exposed to SA throughout its life until harvest by transferring worms to fresh SA-FUDR-OP50 NGM plates every other day.
Survival cultures were grown on 60-mm agar plates; after the late-stage L4/young adult molt, approximately 100 adults were transferred onto SA-OP50-seeded NGM plates. Salicylamine drug plates were made fresh before transfer by spreading SA on top of the agar. Plates were allowed to dry before seeding with UV-irradiated OP50 bacteria. Worms were maintained at 20° C. and live worms were counted during transfer to freshly made SA-OP50-NGM agar plates every 2-3 days. Survival was scored as movement upon slight touch with the platinum wire. Worms were maintained until death.

[4] = system: N2 WT C. elegans; test: Lipofuscin autofluorescence measurement, N2; assay type: in vivo; details: 100 μM or 500 μM SA versus vehicle control; p<0.01
Excerpt: To quantify this, the present inventors chose both a biochemical endpoint (lipofuscin autofluorescence) and a behavioral measure (pharyngeal pumping) that change predictably with aging and are associated with healthspan. The accumulation in the nematode intestinal epithelium of autofluorescent lipofuscin granules, a heterogeneous mixture of oxidized and crosslinked lipids and proteins and advanced glycation end products, is a known conserved phenomenon observed to increase with age. Visualization of lipofuscin granules is often used as an age-related assessment of healthspan. Lipofuscin autofluorescence were quantified over time (every 5 days) in N2 adult nematodes (10-20 per colony) in the presence of increasing doses of SA. SA response profiles were generated from integrating the area-under-the-curve (AUC) of fluorescent intensity as a function of time (FIG. 1C). […] For a behavioral/functional measurement of health, pharyngeal pumping rates were quantified. […] Pharyngeal pumping rates quantified in WT N2 worms established on OP50-seeded NGM agar plates with increasing concentrations of SA. The frequency of pharyngeal pumping was measured and recorded every fifth day as the animals aged.
Synchronized late L4/early young adult worms were plated on FUDR containing SA-OP50-seeded NGM plates and worms were maintained at 20° C. […] The fluorescence was calculated using ImageJ software.

NCc1ccccc1O [SA, salicylamine]
acetyl-Lys 122 in MnSOD [1]: trend toward lower acetyl-Lys 122
development of angiotensin II-induce hypertension [2]: prevents
increase in median lifespan ([3]; 50 μM SA): 18%
median lifespan ([3]; 50 μM SA): 19 days
increase in median lifespan ([3]; 100 μM SA, p<0.05): 32%
median lifespan ([3]; 100 μM SA): 21 days
increase in median lifespan ([3]; 500 μM SA, p<0.01): 56%
median lifespan ([3]; 500 μM SA): 25 days
age-associated lipofuscin accumulation (AUC of autofluorescence over time) [4]: significant reduction
